# Legend:
# [1] = system: southern chinch bugs (pyrethroid-resistant chinch bugs); test: Florida Study (a): St. Augustine grass lawns, chinch bug counts; assay type: in vivo, Blissus hirsutus; settings: for number of southern chinch bugs per ft^2 (per 930 cm^2): bifenthrin 0.2 lb/A, imidacloprid 0.25 lb/A where applied
# Description: (§1) The following tests were performed to show the efficacy of combinations containing imidacloprid and bifenthrin against pyrethroid-resistant chinch bugs (Blissus hirsutus).
# St. Augustine grass lawns, were treated in the summer of 2005 with either bifenthrin at 0.2 lb/A (220 g/ha) or with one of two combination products containing imidacloprid at 0.25 lb/A (280 g/ha) plus bifenthrin at 0.2 lb/A (220 g/ha). At the time of application, populations of chinch bugs were very low. The grass was irrigated and mowed according to local agronomic practices. Because of poor efficacy, imidacloprid is not used commercially for this application and thus was not tested alone in this study.
# The numbers of chinch bugs in the lawns were counted at 40 days after application (DAT). After this time period, lawns treated with the combination products containing imidacloprid and bifenthrin had no chinch bugs.
# [2] = system: pyrethroid-resistant chinch bugs (southern chinch bugs); test: Florida Study (b): seven St. Augustine grass lawns, chinch bug counts; assay type: in vivo, Blissus hirsutus
# Description: as §1
# (§2) Seven St. Augustine grass lawns were treated several times in the summer of 2005 with bifenthrin at 0.2 lb/A (220 g/ha), the highest registered dose of the most widely-used product used for control of southern chinch bugs in Florida.
# In October of 2005 the lawns were sampled, and the average population of chinch bugs in each lawn was 571 bugs/ft^2 (i.e., 571 bugs per about 930 cm^2), an exceedingly heavy population. After this sampling was done, the seven lawns were treated with a soluble concentrate formulation of a product containing imidacloprid plus bifenthrin at 0.25 lb/A plus 0.2 lb/A (280 g/ha plus 220 g/ha). Six days after treatment, the lawns were again sampled, at which time an average of 6 chinch bugs/ft^2 (i.e., 6 bugs per about 930 cm^2) was observed.
# [3] = system: chinch bugs collected from Florida Study (b) lawns; test: University of Florida laboratory bioassay of bifenthrin susceptibility; assay type: in vivo, Blissus hirsutus; settings: bugs sampled from the treated lawns
# Description: as §2
# [4] = system: Japanese beetle (Popillia japonica); test: Japanese beetle choice test on treated and untreated turfgrass cores; assay type: in vivo; settings: 4 days after infestation
# Description: The following tests were performed to show the efficacy of combinations containing imidacloprid and bifenthrin against Japanese beetle eggs (Popillia japonica).
# Turfgrass cores (6.4 cm in diameter, 7 cm deep) were set into tight-fitting paper cups. Four cores were arranged in an ABAB layout in cylindrical plastic cages (60 cm in diameter, 50 cm high) cages with lids that prevented any insects inside from escaping. The cages were sufficiently large to allow adult Japanese beetles to fly and/or crawl unimpeded from one core to another, thereby providing an experimental design that was an accurate measure of which type of turf (untreated or insecticide treated) the adult beetles preferred.
# Tests were carried out using the following compositions compared to untreated controls: • Composition (1): Imidacloprid at 0.25 lb/A (about 280 g/ha) plus bifenthrin at 0.2 lb/A (about 220 g/ha) • Composition (2): Imidacloprid at 0.3 lb/A (about 340 g/ha)
# Eight replicates of each paired comparison were tested. Gravid adult female Japanese beetles were collected from the field and eight females were placed in each cage. Tests were carried out at 25° C. and with 14 h photophase. One day after infestation, a piece of apple was added to the cage as a food/water source.
# At 4 days after infestation, the numbers of adult beetles found in treated and untreated cores were counted. […]
SMILES,number of southern chinch bugs per ft^2 (per 930 cm^2) ([1]; 0 DAT),number of southern chinch bugs per ft^2 (per 930 cm^2) ([1]; 40 DAT),chinch bugs in the lawns (in words) ([1]; 40 days after application (DAT)),control of southern chinch bugs (in words) ([1]; overall conclusion from the table data),"average population of chinch bugs in each lawn ([2]; October 2005, after several bifenthrin treatments at 0.2 lb/A, before the combination treatment) [bugs/ft^2]",control of southern chinch bugs (in words) ([2]; lawns treated several times in summer 2005 at 0.2 lb/A (220 g/ha)),times less susceptible than a normal pyrethroid-susceptible population [3] [times],"number of adult beetles found in treated cores ([4]; choice against untreated cores, imidacloprid 0.25 lb/A plus bifenthrin 0.2 lb/A, or imidacloprid alone 0.3 lb/A, 25° C.) [beetles]",beetle preference between treated and untreated turf (in words) ([4]; paired choice comparison)
"Cc1c(COC(=O)[C@@H]2[C@H](/C=C(\Cl)C(F)(F)F)C2(C)C)cccc1-c1ccccc1 (racemic) [Bifenthrin, 2-methylbiphenyl-3-ylmethyl (Z)-(1RS,3RS)-3-(2-chloro-3,3,3-trifluoroprop-1-enyl)-2,2-dimethylcyclopropane-carboxylate]",0 per ft^2 (per 930 cm^2),250 per ft^2 (per 930 cm^2),economically damaging levels,not effective,571,exceedingly poor,47,,
O=[N+]([O-])NC1=NCCN1Cc1ccc(Cl)nc1 [Imidacloprid],,,,,,,,3.8,the beetles show preference

# Reference: US8202527B2, “Method of combating turf pests with a combination of imidacloprid and bifenthrin” (priority 2005, dated 2012)
